In patent publication US8846876B2, “Compositions containing, methods involving, and uses of non-natural amino acids and polypeptides” (Abrx, Inc., priority 2004, dated 2014):

Legend:
[1] = Oxime stability pH 4-8 (testing non-natural amino acids); format: physicochemical
Method: (§1) This example provides results of four tests that were conducted on certain illustrative non-natural amino acids as an aid for predicting their properties for incorporation into non-natural amino acid polypeptides.

RS = RS test
Method: as §1

Row | Oxime Stability pH 4-8 [1] | SMILES | RS test (RS)
1 | — — | N[C@@H](Cc1ccc2c(c1)NC(=O)C2=O)C(=O)O | 
2 |  | CC(=O)CC(=O)c1ccc(C[C@H](N)C(=O)O)cc1 | Meta- bolized
3 |  | CC(=O)c1ccc(C[C@H](N)C(=O)O)cc1 | √
4 |  | CC(=O)N/N=C/c1ccc(C[C@H](N)C(=O)O)cc1 | √
